Data: patent US6878742B2, “Heterocyclic sulfonamide inhibitors of beta amyloid production” (Wyeth, priority 2000, dated 2005)
Values joined by “and” are separate entries in the source; they are usually repeats but may differ in a detail not shown here. Identical values can stand only once.

Each compound was assayed on amyloid precursor protein (APP) proteolysis (assay: Repressor Release Assay (RRA)). Conditions: Conc 1 μg/mL; luciferase activity over diluent control.
Format: cell-based
Outline: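 This repressor release assay monitors APP proteolysis in mammalian cells. Transfected CHO-K1 cells (pRSVO-luc plus APP-lacI) were seeded at […], treated with compound diluted in 25 mM Hepes, then incubated 36-48 hours. After replacing media with PBS and adding LucLite lysis/substrate buffer, luminescence was measured, and fold increase over diluent control was calculated.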
`CC[C@@H](C)[C@@H](CO)NS(=O)(=O)c1ccc(Br)s1` [Example 17] was tested, and the “APPI Fold Increase” value was 2.38 fold.

Same assay, conditions: Conc 3 μg/mL; luciferase activity over diluent control
`CC[C@@H](C)[C@@H](CO)NS(=O)(=O)c1ccc(Br)s1` [Example 17] was tested, and the “APPI Fold Increase” value was 3.47 fold.

Same assay, conditions: Conc 10 μg/mL; luciferase activity over diluent control
In the case of `CC[C@@H](C)[C@@H](CO)NS(=O)(=O)c1ccc(Br)s1` [Example 17], the “APPI Fold Increase” value is reported as 3.29 fold.
In the case of `CC=C(C)C(O)C(NS(=O)(=O)c1ccc(Cl)s1)C(C)CC` (mixture of isomers) [Example 135], the “APPI Fold Increase” value is reported as 1.93 fold and 1.75 fold.
In the case of `CC(C)(C)[C@@H](CO)NS(=O)(=O)c1ccc(Cl)s1` [Example 98], the “APPI Fold Increase” value is reported as 2.43 fold.

Same assay, conditions: Conc 10 μg/mL; luciferase activity over diluent control; read-out: APPI Fold Increase
Work on `CC[C@H](C)[C@H](NS(=O)(=O)c1cccs1)C(O)c1ccc(N(C)C)cc1` (stereo partly drawn) [Example 154, N-{(S,S)-1-[[4-(dimethylamino)phenyl](hydroxy)methyl]-2-methylbutyl}thiophene-2-sulfonamide] yielded a fold induction at 10 µg/mL of 4.23.
`CC[C@H](C)[C@H](NS(=O)(=O)c1ccc(Cl)s1)C(O)(CC)CC` [Example 166, 5-chloro-N-{(S)-2-ethyl-2-hydroxy-1-[(S)-1-methylpropyl]butyl}thiophene-2-sulfonamide] was tested, and the fold induction at 10 µg/mL was 1.78.
`CC[C@H](C)[C@H](NS(=O)(=O)c1ccc(Cl)s1)C(C)(C)O` [Example 162, 5-Chloro-N-[(S,S)-1-(1-hydroxy-1-methylethyl)-2-methylbutyl]thiophene-2-sulfonamide] gave a fold induction at 10 µg/mL of 2.6.
`C=CCCC(O)[C@@H](NS(=O)(=O)c1ccc(Cl)s1)[C@@H](C)CC` (stereo partly drawn) [Example 137, 5-chloro-N-{(S)-2-hydroxy-1-[(S)-1-methylpropyl]hex-5-enyl}thiophene-2-sulfonamide] showed a fold induction at 10 µg/mL of 1.96.
`CCCCC(O)[C@@H](NS(=O)(=O)c1cccs1)[C@@H](C)CC` (stereo partly drawn) [Example 143, N-{(S)-2-hydroxy-1-[(S)-1-methylpropyl]hexyl}thiophene-2-sulfonamide] gave a fold induction at 10 µg/mL of 1.64.
For `CCC(O)[C@@H](NS(=O)(=O)c1cccs1)[C@@H](C)CC` (stereo partly drawn) [Example 148, N-{(S)-2-hydroxy-1-[(S)-1-methylpropyl]butyl}thiophene-2-sulfonamide], the fold induction at 10 µg/mL was 1.52.

Same assay, conditions: Conc 20 μg/mL; luciferase activity over diluent control
`O=S(=O)(NC1(CO)Cc2ccccc2C1)c1ccc(Br)s1` [Example 183] was tested, and the “APPI Fold Increase” value was 3.7 fold.
With “5-chloro-N-{(S,R)-2-hydroxy-1-[(S)-1-methylpropyl]pent-4-enyl}thiophene-2-sulfonamide [Example 189]” the “APPI Fold Increase” value was 8.1 fold and 7.9 fold and 7.2 fold and 4.4 fold.
With `CC[C@@H](C)[C@@H](CO)NS(=O)(=O)c1ccc(Br)s1` [Example 17] the “APPI Fold Increase” value was 6.1 fold and 3.5 fold.
`CC[C@H](C)[C@@H](CO)NS(=O)(=O)c1cccs1` [Example 210, N-[(1S,2S)-1-(Hydroxymethyl)-2-methylbutyl]thiophene-2-sulfonamide] was tested, and the “APPI Fold Increase” value was 7.7 fold.
In the case of “5-chloro-N-{(S,S)-1-[(S)-1-hydroxyethyl]-2-methylbutyl}thiophene-2-sulfonamide [Example 184]”, the “APPI Fold Increase” value is reported as 3.7 fold and 2.7 fold.

Same assay, conditions: Conc 20 μg/mL; luciferase activity over diluent control; read-out: APPI Fold Increase
`C[C@@H](c1ccc(-c2ccccc2)cc1)[C@@H](CO)NS(=O)(=O)c1ccc(Cl)s1` [Example 53, N-[(1S,2S)-2-[1,1'-biphenyl]-4-yl-1-(hydroxymethyl)propyl]-5-chlorothiophene-2-sulfonamide] gave a fold induction at 20 µg/mL of 3.9.
With `CCCC(CO)NS(=O)(=O)c1ccc(Cl)s1` (racemic) [Example 97, 5-chloro-N-[1-(hydroxymethyl)butyl]thiophene-2-sulfonamide] the fold induction at 20 µg/mL was 1.8.
`C[C@@H](c1ccco1)[C@@H](CO)NS(=O)(=O)c1ccc(Br)s1` [Example 70, 5-bromo-N-[(1S,2R)-2-(2-furyl)-1-(hydroxymethyl)propyl]thiophene-2-sulfonamide] gave a fold induction at 20 µg/mL of 4.6.
Compound `O=S(=O)(N[C@H](CO)C1Cc2ccccc2C1)c1ccc(Cl)s1` [Example 228, 5-Chloro-N-[(1S)-1-(2,3-dihydro-1H-inden-2-yl)-2-hydroxyethyl]thiophene-2-sulfonamide] has a fold induction at 20 µg/mL of 9.9.
In the case of `CCC(CO)(CO)NS(=O)(=O)c1ccc(Cl)s1` [Example 93, N-[1,1-bis(hydroxymethyl)propyl]-5-chlorothiophene-2-sulfonamide], the fold induction at 20 µg/mL is reported as 2.
With `CCC[C@H](C)[C@@H](CO)NS(=O)(=O)c1ccc(Cl)s1` [Example 33, 5-chloro-N-[(1S,2S)-1-(hydroxymethyl)-2-methylpentyl]thiophene-2-sulfonamide] the fold induction at 20 µg/mL was 6.5.
`O=S(=O)(N[C@H](CO)C1CCC(OCc2ccccc2)CC1)c1ccc(Cl)s1` (stereo partly drawn) [Example 202, N-{(S)-1-[4-(benzyloxy)cyclohexyl]-2-hydroxyethyl}-5-chlorothiophene-2-sulfonamide] showed a fold induction at 20 µg/mL of 2.
For `CC[C@H](C)[C@H](NS(=O)(=O)c1ccc(Cl)s1)C(O)C/C=C/c1ccccc1` (stereo partly drawn) [Example 161, 5-chloro-N-{(S,E)-2-hydroxy-1-[(S)-1-methylpropyl]-5-phenylpent-4-enyl}thiophene-2-sulfonamide], the fold induction at 20 µg/mL was 2.6.
For `CC(C)C[C@@H](C)[C@@H](CO)NS(=O)(=O)c1ccc(Br)s1` [Example 56, 5-bromo-N-[(1S,2R)-1-(hydroxymethyl)-2,4-dimethylpentyl]thiophene-2-sulfonamide], the fold induction at 20 µg/mL was 6.8.
`CCCCCC[C@@H](CCC)[C@@H](CO)NS(=O)(=O)c1ccc(Cl)s1` [Example 37, 5-chloro-N-[(1S,2R)-1-(hydroxymethyl)-2-propyloctyl]thiophene-2-sulfonamide] was tested, and the fold induction at 20 µg/mL was 4.8.
Work on `C=CCNC1CCC([C@@H](CO)NS(=O)(=O)c2ccc(Cl)s2)CC1` (stereo partly drawn) [Example 215, 5-chloro-N-[(S)-2-hydroxy-1-(4-allylaminocyclohexyl)ethyl]thiophene-2-sulfonamide] yielded a fold induction at 20 µg/mL of 2.
With `CC[C@@H](C(C)C)[C@@H](CO)NS(=O)(=O)c1ccc(Br)s1` [Example 74, 5-bromo-N-[(1S,2S)-2-ethyl-1-(hydroxymethyl)-3-methylbutyl]thiophene-2-sulfonamide] the fold induction at 20 µg/mL was 5.1.
`O=S(=O)(NC1(CO)CC2CCC1C2)c1ccc(Cl)s1` (stereo not shown) [Example 178, 5-chloro-N-[2-(hydroxymethyl)bicyclo[2.2.1]hept-2-yl]thiophene-2-sulfonamide] gave a fold induction at 20 µg/mL of 2.3.
`O=S(=O)(N[C@H](CO)CSCc1ccccc1)c1ccc(Cl)s1` [Example 101, N-[R-2-(benzylthio)-1-(hydroxymethyl)ethyl]-5-chlorothiophene-2-sulfonamide] was tested, and the fold induction at 20 µg/mL was 2.7.
`CCCCCC[C@@H](CC)[C@@H](CO)NS(=O)(=O)c1ccc(Cl)s1` [Example 77A, 5-Chloro-N-[(1S,2R)-2-ethyl-1-(hydroxymethyl)octyl]thiophene-2-sulfonamide] gave a fold induction at 20 µg/mL of 3.1.
`CC[C@H](C)[C@@H](/C=N\O)NS(=O)(=O)c1ccc(Cl)s1` [Example 229] showed a fold induction at 20 µg/mL of 6.3.
With `O=S(=O)(N[C@H](CO)C1CCNCC1)c1ccc(Cl)s1` [Example 225, 5-Chloro-N-[(S)-2-hydroxy-1-piperidin-4-ylethyl]thiophene-2-sulfonamide] the fold induction at 20 µg/mL was 8.
Work on `C[C@@H](c1ccccc1)[C@@H](CO)NS(=O)(=O)c1ccc(Cl)s1` [Example 46, 5-chloro-N-[(1S,2S)-1-(hydroxymethyl)-2-phenylpropyl]thiophene-2-sulfonamide] yielded a fold induction at 20 µg/mL of 5.8.
`O=S(=O)(NC1(CO)CCCCC1)c1ccc(Br)s1` [Example 181, 5-bromo-N-[1-(hydroxymethyl)cyclohexyl]thiophene-2-sulfonamide] showed a fold induction at 20 µg/mL of 2.6.
In the case of `CC[C@@H](c1ccccc1)[C@@H](CO)NS(=O)(=O)c1ccc(Br)s1` [Example 67, 5-bromo-N-[(1S,2S)-1-(hydroxymethyl)-2-phenylbutyl]thiophene-2-sulfonamide], the fold induction at 20 µg/mL is reported as 4.7.
In the case of `CCCCCC[C@@H](C)[C@@H](CO)NS(=O)(=O)c1ccc(Br)s1` [Example 57, 5-bromo-N-[(1S,2R)-1-(hydroxymethyl)-2-methyloctyl]thiophene-2-sulfonamide], the fold induction at 20 µg/mL is reported as 6.4.
Work on `CC[C@H](C)[C@H](NS(=O)(=O)c1ccc(Cl)s1)C(O)C(F)(F)F` (stereo partly drawn) [Example 196, 5-Chloro-N-[(S,S)-2-methyl-1-(2,2,2-trifluoro-1-hydroxyethyl)butyl]thiophene-2-sulfonamide] yielded a fold induction at 20 µg/mL of 20.7.
`C[C@@H](c1ccco1)[C@@H](CO)NS(=O)(=O)c1ccc(Cl)s1` [Example 48, 5-chloro-N-[(1S,2R)-2-(2-furyl)-1-(hydroxymethyl)propyl]thiophene-2-sulfonamide] showed a fold induction at 20 µg/mL of 4.7.
Work on `CCCCC[C@H](CC)[C@@H](CO)NS(=O)(=O)c1ccc(Cl)s1` [Example 41, 5-chloro-N-[(1S,2S)-2-ethyl-1-(hydroxymethyl)heptyl]thiophene-2-sulfonamide] yielded a fold induction at 20 µg/mL of 4.7.
`CC(C)[C@@](C)(CO)NS(=O)(=O)c1ccc(Br)s1` [Example 25, 5-Bromo-N-[(1S)-1-(hydroxymethyl)-1,2-dimethylpropyl]thiophene-2-sulfonamide] gave a fold induction at 20 µg/mL of 7.5.
For `C[C@@H](O)[C@@H](CO)NS(=O)(=O)c1ccc(Br)s1` [Example 117, 5-bromo-N-[(R,R)-2-hydroxy-1-(hydroxymethyl)propyl]thiophene-2-sulfonamide], the fold induction at 20 µg/mL was 2.6.
With `CCCC(CCC)[C@@H](CO)NS(=O)(=O)c1ccc(Cl)s1` [Example 40, 5-chloro-N-[(1S)-2-propyl-1-(hydroxymethyl)pentyl]thiophene-2-sulfonamide] the fold induction at 20 µg/mL was 3.9.
In the case of `CCCCC[C@H](c1ccccc1)[C@@H](CO)NS(=O)(=O)c1ccc(Cl)s1` [Example 45, 5-chloro-N-[(1S,2R)-1-(hydroxymethyl)-2-phenylheptyl]thiophene-2-sulfonamide], the fold induction at 20 µg/mL is reported as 2.1.

Same assay, conditions: read-out: APPI Fold Increase
With `O=S(=O)(NC(CO)C1CC=CCC1)c1ccc(Cl)s1` (stereo not shown) [Example 23, 5-chloro-N-(1-cyclohex-3-en-1-yl-2-hydroxyethyl)thiophene-2-sulfonamide] the fold induction at 20 µg/mL was 6.4.
Compound `CCCCC(CC)C(CO)NS(=O)(=O)c1ccc(Cl)s1` (stereo not shown) [Example 21, 5-chloro-N-[2-ethyl-1-(hydroxymethyl)hexyl]thiophene-2-sulfonamide] has a fold induction at 20 µg/mL of 3.3.
